Reference: patent publication US11759462B2, “Spirocyclic compounds as tryptophan hydroxylase inhibitors” (priority 2013, dated 2023)
Like-named read-outs stand apart in the source and are kept apart here.

Biological target: T1, Recombinant human TPH1 (MBP tagged) (Homo sapiens, UniProt P17752)
T1 construct: cloning full length human TPH1 cDNA in to a bacterial pMAL-c5E expression vector; made in house; host or cells: E. coli BL21 (DE3)
T1 sequence (P17752 1-444): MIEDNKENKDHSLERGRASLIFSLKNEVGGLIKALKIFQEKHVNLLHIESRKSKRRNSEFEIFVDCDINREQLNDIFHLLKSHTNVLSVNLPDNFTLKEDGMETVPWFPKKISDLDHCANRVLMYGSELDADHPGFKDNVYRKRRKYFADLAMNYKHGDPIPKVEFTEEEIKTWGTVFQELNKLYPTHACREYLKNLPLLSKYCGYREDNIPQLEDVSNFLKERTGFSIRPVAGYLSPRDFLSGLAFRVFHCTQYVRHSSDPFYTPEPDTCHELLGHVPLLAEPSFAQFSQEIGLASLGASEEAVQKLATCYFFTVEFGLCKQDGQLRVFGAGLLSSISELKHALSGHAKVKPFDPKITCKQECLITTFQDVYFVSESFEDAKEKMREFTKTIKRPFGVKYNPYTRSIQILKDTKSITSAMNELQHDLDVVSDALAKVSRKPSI
Assay: TPH1 in vitro inhibition assay (kinetic fluorescence)
Type: biochemical
How it was run: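 Final mix: 15 nM MBP-TPH1, 30 μM Trp, 36 μM 6-methyltetrahydropterin, 25 μM ferrous ammonium sulfate, 50 mM MES pH 7.1, 1% DMSO, room temperature.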

[1] = read-out: TPH1 Range (TPH1 inhibition IC50)
[2] = TPH1 Range (TPH1 inhibition IC50)

IC50 [1]	Structure (SMILES)	IC50 [2]
300 to 3000 nM	Nc1ccc(-c2cc(Cl)ccc2[C@@H](Oc2cc(N3CCC4(CC3)CNC(C(=O)O)C4)nc(N)n2)C(F)(F)F)cc1 (stereo partly drawn) [Example 34h, 8-(2-amino-6-((R)-1-(4′-amino-5-chloro-[1,1′-biphenyl]-2-yl)-2,2,2-trifluoroethoxy)pyrimidin-4-yl)-2,8-diazaspiro[4.5]decane-3-carboxylic acid]	
3000 to 10000 nM	Cc1ccn(-c2cc(Cl)ccc2[C@@H](Oc2cc(Oc3ccccc3)nc(N3CCC4(CC3)CNC(C(=O)O)C4)n2)C(F)(F)F)n1 (stereo partly drawn) [Example 46, 8-(4-((R)-1-(4-chloro-2-(3-methyl-H-pyrazol-1-yl)phenyl)-2,2,2-trifluoroethoxy)-6-phenoxypyrimidin-2-yl)-2,8-diazaspiro[4.5]decane-3-carboxylic acid]	
< 50 nM	COc1ccc(-c2ccc([C@@H](Oc3cc(N4CCC5(CC4)CN[C@H](C(=O)O)C5)nc(C)n3)C(F)(F)F)c(-n3ccc(C)n3)c2)c(OC)c1 [Example 29h, (S)-8-(6-((R)-1-(2′,4′-dimethoxy-3-(3-methyl-1H-pyrazol-1-yl)-[1,1′-biphenyl]-4-yl)-2,2,2-trifluoroethoxy)-2-methylpyrimidin-4-yl)-2,8-diazaspiro[4.5]decane-3-carboxylic acid]	
50 to 300 nM	Cc1ccn(-c2cc(-c3cnoc3)ccc2[C@@H](Oc2cc(N3CCC4(CC3)CN[C@H](C(=O)O)C4)nc(N)n2)C(F)(F)F)n1 [Example 1i, (S)-8-(2-amino-6-((R)-2,2,2-trifluoro-1-(4-(isoxazol-4-yl)-2-(3-methyl-1H-pyrazol-1-yl)phenyl)ethoxy)pyrimidin-4-yl)-2,8-diazaspiro[4.5]decane-3-carboxylic acid]	
300 to 3000 nM	Nc1nc(NCc2c(Oc3ccccc3)cccc2N2CCCCC2)cc(N2CCC3(CC2)CN[C@H](C(=O)O)C3)n1 [Example 41b, (S)-8-(2-amino-6-((2-phenoxy-6-(piperidin-1-yl)benzyl)amino)pyrimidin-4-yl)-2,8-diazaspiro[4.5]decane-3-carboxylic acid]	
50 to 300 nM	Nc1nc(O[C@H](c2ccc(-c3cccc(OC(F)(F)F)c3)cc2)C(F)(F)F)cc(N2CCC3(CC2)CN[C@H](C(=O)O)C3)n1 [Example 55at, (S)-8-(2-amino-6-((R)-2,2,2-trifluoro-1-(3′-(trifluoromethoxy)-[1,1′-biphenyl]-4-yl)ethoxy)pyrimidin-4-yl)-2,8-diazaspiro[4.5]decane-3-carboxylic acid]	
50 to 300 nM	Nc1nc(O[C@H](c2ccc(-c3ccc(C(=O)N4CCCC4)cc3)cc2)C(F)(F)F)cc(N2CCC3(CC2)CN[C@H](C(=O)O)C3)n1 [Example 55bp, (S)-8-(2-amino-6-((R)-2,2,2-trifluoro-1-(4′-(pyrrolidine-1-carbonyl)-[1,1′-biphenyl]-4-yl)ethoxy)pyrimidin-4-yl)-2,8-diazaspiro[4.5]decane-3-carboxylic acid]	
< 50 nM	Nc1nc(O[C@H](c2ccc(Cl)cc2-c2cc(F)cc(C(F)(F)F)c2)C(F)(F)F)cc(N2CCC3(CC2)CN[C@H](C(=O)O)C3)n1 [Example 34aq, (S)-8-(2-amino-6-((R)-1-(5-chloro-3′-fluoro-5′-(trifluoromethyl)-[1,1′-biphenyl]-2-yl)-2,2,2-trifluoroethoxy)pyrimidin-4-yl)-2,8-diazaspiro[4.5]decane-3-carboxylic acid]	
50 to 300 nM	Nc1nc(O[C@H](c2ccc(Cl)cc2-c2cccc(C(=O)N3CCCC3)c2)C(F)(F)F)cc(N2CCC3(CC2)CN[C@H](C(=O)O)C3)n1 [Example 34ca, (S)-8-(2-amino-6-((R)-1-(5-chloro-3′-(pyrrolidine-1-carbonyl)-[1,1′-biphenyl]-2-yl)-2,2,2-trifluoroethoxy)pyrimidin-4-yl)-2,8-diazaspiro[4.5]decane-3-carboxylic acid]	
300 to 3000 nM	Cn1cc(-c2ccc([C@@H](Oc3cc(N4CCC5(CC4)CN[C@H](C(=O)O)C5)nc(N)n3)C(F)(F)F)cc2)ccc1=O [Example 55af, (S)-8-(2-amino-6-((R)-2,2,2-trifluoro-1-(4-(1-methyl-6-oxo-1,6-dihydropyridin-3-yl)phenyl)ethoxy)pyrimidin-4-yl)-2,8-diazaspiro[4.5]decane-3-carboxylic acid]	
300 to 3000 nM	Nc1nc(O[C@H](c2ccc(-c3ccc4cnoc4c3)cc2)C(F)(F)F)cc(N2CCC3(CC2)CN[C@H](C(=O)O)C3)n1 [Example 55g, (S)-8-(2-amino-6-((R)-1-(4-(benzo[d]isoxazol-6-yl)phenyl)-2,2,2-trifluoroethoxy)pyrimidin-4-yl)-2,8-diazaspiro[4.5]decane-3-carboxylic acid]	
50 to 300 nM	Cc1ccn(-c2cc(C(O)CO)ccc2[C@@H](Oc2cc(N3CCC4(CC3)CN[C@H](C(=O)O)C4)nc(N)n2)C(F)(F)F)n1 (stereo partly drawn) [Example 13, (3S)-8-(2-amino-6-((1R)-1-(4-(1,2-dihydroxyethyl)-2-(3-methyl-1H-pyrazol-1-yl)phenyl)-2,2,2-trifluoroethoxy)pyrimidin-4-yl)-2,8-diazaspiro[4.5]decane-3-carboxylic acid]	
< 50 nM	Cc1ccn(-c2cc(-c3ccc(C(=O)NCCN4CCOCC4)cc3)ccc2[C@@H](Oc2cc(N3CCC4(CC3)CN[C@H](C(=O)O)C4)nc(N)n2)C(F)(F)F)n1 [Example 1ce, (S)-8-(2-amino-6-((R)-2,2,2-trifluoro-1-(3-(3-methyl-1H-pyrazol-1-yl)-4′-((2-morpholinoethyl)carbamoyl)-[1,1′-biphenyl]-4-yl)ethoxy)pyrimidin-4-yl)-2,8-diazaspiro[4.5]decane-3-carboxylic acid]	
< 50 nM	Cc1ccn(-c2cc(-c3ccc(-c4nnc(C)o4)c(F)c3)ccc2[C@@H](Oc2cc(N3CCC4(CC3)CN[C@H](C(=O)O)C4)nc(N)n2)C(F)(F)F)n1 [Example 1cb, (S)-8-(2-amino-6-((R)-2,2,2-trifluoro-1-(3′-fluoro-4′-(5-methyl-1,3,4-oxadiazol-2-yl)-3-(3-methyl-1H-pyrazol-1-yl)-[1,1′-biphenyl]-4-yl)ethoxy)pyrimidin-4-yl)-2,8-diazaspiro[4.5]decane-3-carboxylic acid]	
< 50 nM	Cc1ccn(-c2cc(-c3cccc(OC(C)C)c3)ccc2[C@@H](Oc2cc(N3CCC4(CC3)CN[C@H](C(=O)O)C4)nc(N)n2)C(F)(F)F)n1 [Example 1bc, (S)-8-(2-amino-6-((R)-2,2,2-trifluoro-1-(3′-isopropoxy-3-(3-methyl-1H-pyrazol-1-yl)-[1,1′-biphenyl]-4-yl)ethoxy)pyrimidin-4-yl)-2,8-diazaspiro[4.5]decane-3-carboxylic acid]	
	Cc1nn(C)c2cc(-c3ccc([C@@H](Oc4cc(N5CCC6(CC5)CN[C@H](C(=O)O)C6)nc(N)n4)C(F)(F)F)cc3)ccc12 [Example 55ba, (S)-8-(2-amino-6-((R)-1-(4-(1,3-dimethyl-1H-indazol-6-yl)phenyl)-2,2,2-trifluoroethoxy)pyrimidin-4-yl)-2,8-diazaspiro[4.5]decane-3-carboxylic acid]	< 50 nM
< 50 nM	Nc1nc(O[C@H](c2ccccc2-c2ccccc2)C(F)(F)F)cc(N2CCC3(CC2)CN[C@H](C(=O)O)C3)n1 [Example 36g, (S)-8-(6-((R)-1-([1,1′-biphenyl]-2-yl)-2,2,2-trifluoroethoxy)-2-aminopyrimidin-4-yl)-2,8-diazaspiro[4.5]decane-3-carboxylic acid]	
50 to 300 nM	CN(C)C(=O)c1cccc(-c2cc(Cl)ccc2[C@@H](Oc2cc(N3CCC4(CC3)CN[C@H](C(=O)O)C4)nc(N)n2)C(F)(F)F)c1 [Example 34cn, (S)-8-(2-amino-6-((R)-1-(5-chloro-3′-(dimethylcarbamoyl)-[1,1′-biphenyl]-2-yl)-2,2,2-trifluoroethoxy)pyrimidin-4-yl)-2,8-diazaspiro[4.5]decane-3-carboxylic acid]	
50 to 300 nM	CCCOc1ccc(-c2ccc([C@@H](Oc3cc(N4CCC5(CC4)CN[C@H](C(=O)O)C5)nc(N)n3)C(F)(F)F)cc2)cc1F [Example 55dm, (S)-8-(2-amino-6-((R)-2,2,2-trifluoro-1-(3′-fluoro-4′-propoxy-[1,1′-biphenyl]-4-yl)ethoxy)pyrimidin-4-yl)-2,8-diazaspiro[4.5]decane-3-carboxylic acid]	
< 50 nM	Nc1nc(O[C@H](c2ccc(-c3ccc4c(c3)COC4=O)cc2)C(F)(F)F)cc(N2CCC3(CC2)CN[C@H](C(=O)O)C3)n1 [Example 55s, (S)-8-(2-amino-6-((R)-2,2,2-trifluoro-1-(4-(1-oxo-1,3-dihydroisobenzofuran-5-yl)phenyl)ethoxy)pyrimidin-4-yl)-2,8-diazaspiro[4.5]decane-3-carboxylic acid]	
	Cc1cccc(-c2cc(Cl)ccc2[C@@H](Oc2cc(N3CCC4(CC3)CN[C@H](C(=O)O)C4)nc(N)n2)C(F)(F)F)n1 [Example 34i, (S)-8-(2-amino-6-((R)-1-(4-chloro-2-(6-methylpyridin-2-yl)phenyl)-2,2,2-trifluoroethoxy)pyrimidin-4-yl)-2,8-diazaspiro[4.5]decane-3-carboxylic acid]	50 to 300 nM
	Nc1nc(O[C@H](c2ccc(-c3ccc4c(c3)CCC(=O)N4)cc2)C(F)(F)F)cc(N2CCC3(CC2)CN[C@H](C(=O)O)C3)n1 [Example 55v, (S)-8-(2-amino-6-((R)-2,2,2-trifluoro-1-(4-(2-oxo-1,2,3,4-tetrahydroquinolin-6-yl)phenyl)ethoxy)pyrimidin-4-yl)-2,8-diazaspiro[4.5]decane-3-carboxylic acid]	< 50 nM
